Laboratory results reported in patent publication US8846107B2, “In situ generation of peroxycarboxylic acids at alkaline pH, and methods of use thereof” (priority 2010, dated 2014).

Columns and labels:
[1] = Coupling of precipitated POOA solution by surfactants and hydrotropes; assay type: physicochemical; details: 1000 ppm POOA in DI Water
Description: A variety of surfactants were analyzed for coupling and/or dispersion stabilizing of a peroxycarboxylic acid composition generated according to the methods of the invention. In particular, a peroxyoctanoic acid (POOA) composition in deionized water produced according to the invention was analyzed for coupling and/or dispersion stabilization using the dispersing agents set forth in Table 14A.
Given the very limited water solubility of POOA in its protonated form, acidification of the alkaline perhydrolysis solutions of the same causes immediate precipitation and rapid phase separation. In this example various surfactants and hydrotropes were evaluated for their ability to couple the POOA. In Table 14A it can be seen that the most efficient agents for coupling an already precipitated solution of POOA were samples I and II.

[2] = Dispersion stability of acidified POOA solutions with dispersing agents; assay type: physicochemical
Description: The SLS, LAS and SOA dispersing agents were then further examined for efficacy in stabilizing and/or dispersing in 1% or lower sulfuric acid solutions. Solutions were made according to the following order (3, 6, 9, 12, 1, 4, 7, 10, 2, 5, 8, 11, 13, 14). Solution 13 was made as 1 through 12 with the addition of 50 mL of 5 grain hard water to the aliquot of alkaline reaction solution followed by swirling with the surface aliquot and then additional 50 mL of 5 grain hard water, followed within about 5 seconds by 50 mL of 5 grain 2% sulfuric acid and swirled. Solution 14 was made by direct addition of 1% sulfuric acid (5 grain) without pre-dilution, but after moments of swirling with SLS aliquot. All concentrations are shown in ppm.
For the POOA solutions the targeted peracid concentration was based upon initial average of about 5.40 wt-% of ongoing cold alkaline peracid hydrolysis according to the invention (**), wherein the aliquot was constant while POOA was increasing.
The appearance of an oil sheen was regarded as a pass or fail.

[3] = test system: Escherichia coli ATCC 11229; test: Sanitizing efficacy of in situ generated peroxycarboxylic acids; assay type: cell-based; details: 25° C.
Description: A study was run to evaluate the sanitizing efficacy of mixtures of peroxycarboxylic acids generated in situ from esters under alkaline conditions. For this study the following ester based peroxycarboxylic acid forming compositions were used.
The above Peroxycarboxylic acid premixes were then tested alone at various concentrations, and mixed at various concentrations against Staphylococcus aureus ATCC 6538, and Escherichia coli ATCC 11229.
The test substances were tested against Staphylococcus aureus ATCC 6538, and Escherichia coli ATCC 11229 at 25° C.±1° C. for 30 seconds. A neutralizer screen was performed as part of the testing to verify that the neutralizer adequately neutralized the product and was not detrimental to the tested organisms.

[4] = 35 ppm POAA, pH 5.00, 30 seconds
[5] = 61 ppm POAA, pH 5.00, 30 seconds
[6] = 13 ppm POOA, pH 4.98, 30 seconds
[7] = 15 ppm POOA, pH 5.01, 30 seconds
[8] = 20 ppm POOA, pH 4.98, 30 seconds

## CCCCCCCCCCCCOS(=O)(=O)[O-].[Na+] [I, Sodium Lauryl Sulfate]
[1]
  Amount of (B) Required for Coupling (g/200 g aq POOA): 0.64 g/200 g aq POOA
[2]; acidic, aqueous dispersions of POOA
  dispersant performance for acidified POOA: exceptional dispersant

## CC(=O)OO [POAA, peroxyacetic acid]
[3]; [4]
  Average Log10 Survivors: 7.27 Log10
  Log Reduction: 0.78 Log
  Survivors (CFU/mL): 1.85 × 10^7 CFU/mL
[3]; [5]
  Average Log10 Survivors: 3.93 Log10
  Log Reduction: 4.12 Log
  Survivors (CFU/mL): 3.0 × 10^3 CFU/mL

## CCCCCCCC(=O)OO [POOA, peroxyoctanoic acid]
[3]; [6]
  Average Log10 Survivors: 7.59 Log10
  Log Reduction: 0.46 Log
  Survivors (CFU/mL): 4.22 × 10^7 CFU/mL
[3]; [7]
  Average Log10 Survivors: 7.15 Log10
  Log Reduction: 0.90 Log
  Survivors (CFU/mL): 1.06 × 10^7 CFU/mL
[3]; [8]
  Average Log10 Survivors: 5.85 Log10
  Log Reduction: 2.20 Log

## CCCCCCCCS(=O)(=O)[O-].[Na+] [VII, Sodium octanesulfonate]
[1]
  Amount of (B) Required for Coupling (g/200 g aq POOA): 6.60 g/200 g aq POOA

## CCCCC(CC)COC(=O)CC(C(=O)OCC(CC)CCCC)S(=O)(=O)[O-].[Na+] (centres unmarked) [X, Sodium dioctyl Sulfosuccinates]
[1]
  Amount of (B) Required for Coupling (g/200 g aq POOA): >2.0 g/200 g aq POOA

## Alkyl Polyglycosides [VI]
[1]
  Amount of (B) Required for Coupling (g/200 g aq POOA): 2.46 g/200 g aq POOA

## Linear Aryl Sulfonate [II]
[1]
  Amount of (B) Required for Coupling (g/200 g aq POOA): 0.65 g/200 g aq POOA
[1]; listed as LAS
  Amount of (B) Required for Coupling (g/200 g aq POOA): 0.64 g/200 g aq POOA
[2]; acidified POOA in 10,000 ppm H2SO4, oil sheen regarded as fail
  oil sheen at 23 h: minimal surface oil

## Sodium Lauryl Ether Sulfate [III]
[1]
  Amount of (B) Required for Coupling (g/200 g aq POOA): >0.94 g/200 g aq POOA
